Measured values: US4464367A, “Cephalosporin derivatives, process for preparation thereof and drugs containing said derivatives usable as antibiotics” (Sanofi, priority 1980, dated 1984)
Values after ≈ are worked out from the molar mass of the structure shown. Structures can show the parent of a compound that is named as a salt. Where two headings read alike, the source gives them in different places.

How the values were obtained:
[1] = system: Escherichia coli SOL RL 90; assay: in vitro bacteriostatic action, solid medium, dilutions method; type: cell-based; details: SOLRL90, producing lactamases, read-out: minimum inhibitor concentration (MIC)
Protocol: (§1) The in vitro bacteriostatic action was determined in a solid medium by the dilutions method. The study was directed to Gram^+ and Gram^- strains of which several are known for producing β lactamases.
(§2) The results are expressed in the minimum inhibitor concentrations (MIC--μg/ml).

[2] = system: Escherichia coli R 69/2 TEM; assay: as above; type: cell-based; details: R69/2TEM, read-out: minimum inhibitor concentration (MIC)
Protocol: as §1, §2

[3] = system: Klebsiella pneumoniae RO 30; assay: as above; type: cell-based; details: RO30, producing lactamases, read-out: minimum inhibitor concentration (MIC)
Protocol: as §1, §2

[4] = system: Staphylococcus aureus Smith; assay: as above; type: cell-based; details: not producing lactamases, read-out: minimum inhibitor concentration (MIC)
Protocol: as §1, §2

[5] = system: Klebsiella pneumoniae IP E 55; assay: as above; type: cell-based; details: IPE55, not producing lactamases, read-out: minimum inhibitor concentration (MIC)
Protocol: as §1, §2

Escherichia coli A 223 = assay: as above; type: cell-based; details: A223, not producing lactamases, read-out: minimum inhibitor concentration (MIC)
Protocol: as §1, §2

[6] = system: Escherichia coli SOL RL 90; assay: therapeutic efficacy in septicaemia provoked in the mouse by Escherichia coli SOL RL 90; type: in vivo; details: SOLRL90, sc, 96 h, read-out: DE 50 (median effective dose, ED 50)
Protocol: The therapeutic efficacy of the products is determined in the septicaemic model of the mouse.
Septicaemia is provoked by intraperitoneal inoculation of 0.5 ml of an appropriate dilution of suspension of the strain E.coli Sol. RL 90 producing cephalosporinase.
The products are administered in solution in a phosphate buffer pH 7.0 in a volume of 0.2 ml by the sub-cutaneous route and at a rate of 5 doses (mg of product per kg of live weight of mouse) to batches of 10 mice 1 hour and 5 hours after inoculation of the germ.
After 4 days of observation during which the mortality is noted, the median effective doses (ED 50) are calculated by the Muench and Reed method.

[7] = solubility in a buffer solution; type: physicochemical; details: pH 7, aqueous buffer; buffer solution having a pH of 7
Excerpt: The pharmaceutical compositions are made from compounds (I) in their acid form or, when their solubility is insufficient, in the form of a salt.

Question: What does the source list for CO/N=C(\C(=O)NC1C(=O)N2C(C(=O)O)=C(CSC(=O)c3ccco3)CSC12)c1csc(N)n1 (stereo not drawn) [31 916, Syn isomer [(amino-2 thiazolyl-4)-2 methoxyimino-2 acetamido]-7 (furyl-2 carbonylthiomethyl)-3 cepheme-3 4-carboxylic acid]?
Answer: MIC [1]: 2 µg/mL (≈ 3.82 µM); MIC [2]: 0.25 µg/mL (≈ 0.477 µM); MIC [3]: 8 µg/mL (≈ 15.3 µM); MIC [4]: 0.25 µg/mL (≈ 0.477 µM); MIC [5]: 1 µg/mL (≈ 1.91 µM); MIC (Escherichia coli A 223): 0.5 µg/mL (≈ 0.955 µM); ED50 ([6]; mouse septicaemia, sub-cutaneous, 1 hour and 5 hours after inoculation, 4 days of observation, Muench and Reed method): 5.4 mg/kg

Question: Which results are given for CO/N=C(\C(=O)NC1C(=O)N2C(C(=O)O)=C(CSC(=O)c3cccs3)CSC12)c1csc(N)n1 (stereo not drawn) [31 917, syn isomer [(amino-2 thiazolyl-4)-2 methoxyimino-2 acetamido]-7 (thienyl-2 carbonylthiomethyl)-3 cepheme-3 4-carboxylic acid]?
Answer: MIC [1]: 2 µg/mL (≈ 3.71 µM); MIC [2]: 0.5 µg/mL (≈ 0.927 µM); MIC [3]: 8 µg/mL (≈ 14.8 µM); MIC [4]: 0.25 µg/mL (≈ 0.463 µM); MIC [5]: 1 µg/mL (≈ 1.85 µM); MIC (Escherichia coli A 223): 0.5 µg/mL (≈ 0.927 µM); ED50 [6]: 3.6 mg/kg

Question: For CO/N=C(\C(=O)NC1C(=O)N2C(C(=O)O)=C(CSC(=O)c3ccco3)CSC12)c1csc(N)n1 (stereo not drawn) [sodium salt of compound CM 31916], which solubility [7] is on record?
Answer: > 200 mg/mL
